Source: patent publication US9028855B2, “Plant additives and uses thereof to modulate the synthesis of membrane glycerolipids in planta” (Commissariat a l'Energie Atomique et aux Energies …, priority 2009, dated 2015)

Assays:
ferritin = assay: Western blot of plant ferritin on leaf protein extracts; type: in vivo; conditions: leaves, high phosphate medium + MC2 5 μM, FIG. 12
From the text: After SDS-PAGE in a 12% acrylamide gel and transfer onto a nitrocellulose membrane, ferritin was immunodetected with a primary rabbit polyclonal antibody against AtFER1 and a secondary goat antirabbit antibody conjugated with alkaline phosphatase.
From previous study in the lab, it is known that in response to phosphate starvation, iron is accumulated in cells inducing ferritin accumulation (Hirsch et al., 2006). To determine MC2 effect on iron metabolism, the iron content was quantified by ICP-OES (FIG. 11), accumulation of ferritin was analyzed by Western Blot (FIG. 12) and finally IRT1 gene expression was analyzed, since this gene encodes an iron transporter (FIG. 12).

[1] = test system: phosphate transporter PHT1;4; assay: 8′G::GUS, follow-up of the expression of the phosphate transporter PHT1;4 (GUS staining); type: in vivo, A. thaliana; conditions: compound added to the cultivation medium
From the text: 8′G cell line was obtained as follows: for the PHT1;4 promoter fusion, a 2 kb region upstream of the ORF of PHT1;4 was cloned in the vector pENTR/D-TOPO (pENTRT™/D-TOPO® Cloning Kit, ref. K2400-20, Invitrogen) and transferred to pKGWFS7 (Karimi et al., 2002) by recombination using Gateway BP (Gateway® BP Clonase® enzyme mix, ref. 11789-013, Invitrogen) and LR Clonase enzyme mixes (LR Clonase® II Plus enzyme, ref. 12538-120, Invitrogen), respectively, to produce the pPHT1;4:GUS-GFP gene fusion. This fusion was then introduced into the Arabidopsis genome via the Agrobacterium-mediated transformation system (Logemann et al., 2006).
(§1) Plants were examined for GUS activity by dipping the samples in a GUS staining solution (50 mM sodium phosphate buffer pH 7.0; 0.01% Triton X-100, 1 mM K3Fe(CN)6, 1 mM K4Fe(CN)6, 1 mg/ml 5-dromo-4-chloro-3-indolyl (3-D-GLUCURONIDE (X-Gluc A) and incubated at 37° C. over-night. After staining, the plants were fixed 2 hours in 50 mM sodium phosphate buffer pH 7.0; 1% glutaraldehyde; 4% formaldehyde.

enzyme MGD3 = assay: MGD3::GUS, follow-up of the expression of the gene encoding the enzyme MGD3 (GUS staining); type: in vivo, A. thaliana; conditions: high phosphate medium + MC2 5 μM, FIG. 9
Protocol: pMGD3:GUS cells are as described by Kobayashi et al. (Kobayashi et al., 2004). In these cells, the GUS reporter is expressed under the control of the mgd3 promoter. […] Plants were examined for GUS activity by dipping the samples in a GUS staining solution (50 mM sodium phosphate buffer pH 7.0; 0.01% Triton X-100, 1 mM K3Fe(CN)6, 1 mM K4Fe(CN)6, 1 mg/ml 5-dromo-4-chloro-3-indolyl (3-D-GLUCURONIDE (X-Gluc A) and incubated at 37° C. over-night. After staining, the plants were fixed 2 hours in 50 mM sodium phosphate buffer pH 7.0; 1% glutaraldehyde; 4% formaldehyde. In response to phosphate starvation, the lipid metabolism is modified (Benning and Ohta, 2005). Plants preferentially synthesize sulpho- and galacto-lipids instead of phospholipids. Several enzymes are involved in this remobilisation.

A. thaliana = assay: Root growth (primary root) of plants on high phosphate medium supplied with compound; type: in vivo; conditions: expressed as a percentage having regard to a control; +P control 100, −P 20
From the text: In response to phosphate starvation, the primary root growth is inhibited (Svistoonoff et al., 2007).

wild-type seedlings = assay: Free cellular Pi content (malachite green method); type: in vivo, A. thaliana; conditions: high phosphate medium + MC2 5 μM vs control condition, FIG. 3
Protocol: Three replicates were performed for each experiment. After 5 min of centrifugation, the supernatant was recovered. Phosphate content was measured using the malachite green method as described (Delhaize and Randall, 1995). One hundred and fifty microliters of molybdate solution (17.55 g/l (NH4)6Mo7, 4H2O, 2M H2SO4) were added to the sample (50 μl) diluted in water (700 μl). Ten minutes later, 150 μl of green malachite solution (3.5 g/l polyvinylic alcohol, 0.35 g/l malachite green) were then added. Measurements were carried out at 610 nm after 2 h. Concentrations were calculated using a calibration curve (performed with aKH2PO4 solution) and expressed per fresh weight. To evaluate if this expression interferes with phosphate content, phosphate content was analyzed in different conditions: high phosphate medium (+Pi), low phosphate medium (−Pi) and high phosphate medium+MC2, 5 μM (+Pi, +MC2 5 μM). […] This phosphate accumulation can be easily explained by the overexpression of the phosphate transporter.

PHT1;4 = assay: Chemical genetic screen, pPHT1;4::GUS line (GUS activity in root tip); type: in vivo, A. thaliana; conditions: plant grown on high phosphate medium (500 μM), FIG. 2
Protocol: pPHT1;4::GUS (DCJ 10) cell line is as described by Misson et al. (Misson et al., 2004). This cell line expresses the GUS reporter under the control of the promoter of the pht1;4 gene.
as §1
Chemical genetic screen was based on PHT1;4 expression using the line pPHT1;4::GUS (Misson et al., 2004). […] The formula of MC2 is the following: […]

Medicago truncatula = assay: Root growth of Medicago truncatula in phosphate deficient medium; type: in vivo; conditions: phosphate 10 μM, MC2 5 μM, 10 days, FIG. 14
Protocol: Medicago truncatula seeds were surface-sterilized as follow: soaking in concentrated sulphuric acid for 10 min, rinsing three times with sterile distilled water, soaking in 10% bleach/0.1% Tween 20 solution for 10 min with gentle agitation and finally by rinsing seeds three times with sterile distilled water. Seeds were germinated 48 h in dark. […] In the phosphate (Pi) deficient medium, NaCl (0.5 mM) was used to replace the equivalent amount of sodium provided by NaH2PO4.). Plants were maintained 10 days under a 14 h light/10 h 150 μm^−2s^−1 dark regime with a temperature of 22/18° C. for light/dark phases in a phytotron.

iron transporter IRT1 = assay: IRT1::GUS, follow-up of the expression of the gene encoding the iron transporter IRT1 (GUS staining); type: in vivo, A. thaliana; conditions: compound added to the cultivation medium; MC2 5 μM, FIG. 13
Protocol: as §1, with “pIRT1:GUS cells were obtained as described by Vert et al. (Vert et al., 2002) and carry a irt1 promoter-GUS fusion. […] Plants” for “Plants”

wild type seedlings = assay: Starch accumulation (Lugol/iodine staining); type: in vivo, A. thaliana; conditions: MC2 5 μM; same response as phosphate deficiency (starch strongly accumulated), FIG. 7
Protocol: Leaves were immersed in ethanol (96%) for 6 h to remove pigment and stained with Lugol solution (Fluka) for 30 min to make the starch granules visible.

For Cc1cccc(NC=C2C(=O)CC(C)(C)CC2=O)n1 [MC2], the “ferritin accumulation (Western blot)” value (ferritin) was “not in response to MC2 treatment”, the “PHT1;4 expression (in words, summary of analogues)” value [1] was “induce expression of the Pht1;4 gene” and the “MGD3 expression (in words)” value (enzyme MGD3) was “strongly expressed”. The “Root Growth” value (A. thaliana) was 51 % of control, the “phosphate accumulation in leaves” value (wild-type seedlings) was “two times more” and the “phosphate accumulation in roots” value (wild-type seedlings) was “two times more”. For the same compound, the “expression of PHT1;4 (pPHT1;4::GUS)” value (PHT1;4) was “induce the expression of PHT1;4”, the “growth of roots in a Pi deficient medium” value (Medicago truncatula) was “improved” and the “IRT1 expression (in words)” value (iron transporter IRT1) was “inhibits IRT1 expression”. The “starch accumulation (in words)” value (wild type seedlings) was “same response”.
